Here are results for eleven molecules from patent US20260200929A1, “PYRROLO[3,2-D]PYRIMIDIN-4-ONE DERIVATIVE, AND PREPARATION METHOD THEREFOR AND MEDICAL USE THEREOF” (SHENZHEN SALUBRIS PHARMACEUTICALS CO., LTD., priority 2022, published 2026).

The term IC50 denotes the point on the concentration scale where inhibition reaches its midpoint. A high value points to weaker potency. As a reminder, the AUC(0-t) is exposure summed from dosing to a finite time, without extrapolation to infinity. High values mean more exposure, low ones less exposure. In general, Cmax refers to the peak of the concentration-time curve. The clearance is a measure of how efficiently the substance is removed, as volume per time. Lower therefore signals inefficient removal. What is called half-life is the time needed for the level to fall by half in the phase considered. High values mean slow decline, low ones rapid decline.

Structures are written as SMILES. Where two headings read alike, the source gives them in different places.

In one data set the test system is CYP3A4. The experiment in a line: Enzyme induction test, CYP3A4 mRNA level in human primary hepatocytes. In kind it is in vitro ADME. As to conditions: CYP3A4, 10 μM, 3 days. The text has this:
(§1) Material: Williams' Medium E (without phenol red) was purchased from Sigma Aldrich Trading Co., Ltd; Williams+ Medium E, Recombinant human insulin, GlutaMAX, and HEPES were purchased from Life Technologies; Isotonic Percoll was purchased from General Electric; Fetal bovine serum was purchased from Corning; Dexamethasone was commercially available; CellTiter-Fluor™ Cell Viability Assay kit was purchased from Promega; Taqman Gene Expression Assay probe (20×, CYP1A2, FAM labeled), Taqman Gene Expression Assay probe (20×, CYP2B6, FAM labeled), Taqman Gene Expression Assay probe (20×, CYP3A4, FAM labeled), and Taqman Gene Expression Assay probe (20×, ACTB, VIC labeled) were purchased from AB (Applied Biosystems); and human primary hepatocytes were purchased from BioIVT.
(§2) The test compound, a positive inducer, a negative inducer, and internal standard were accurately weighed to prepare a stock solution with the corresponding concentration. A cell thawing solution and incubation buffer were prepared, and related reagents and consumables of mRNA extraction, reverse transcription, and fluorescence quantitative PCR were prepared.
(§3) The frozen human primary hepatocytes were thawed and inoculated onto a suitable cell culture plate at a certain density for monolayer cell culture to meet cell growth requirements. […]

Data set [1] deals with T1, human myeloperoxidase (hMPO) (Homo sapiens, UniProt P05164).
T1 construct: purchased PLANTANATURAL 700-03-001
T1 sequence (P05164 279-745 limits assumed): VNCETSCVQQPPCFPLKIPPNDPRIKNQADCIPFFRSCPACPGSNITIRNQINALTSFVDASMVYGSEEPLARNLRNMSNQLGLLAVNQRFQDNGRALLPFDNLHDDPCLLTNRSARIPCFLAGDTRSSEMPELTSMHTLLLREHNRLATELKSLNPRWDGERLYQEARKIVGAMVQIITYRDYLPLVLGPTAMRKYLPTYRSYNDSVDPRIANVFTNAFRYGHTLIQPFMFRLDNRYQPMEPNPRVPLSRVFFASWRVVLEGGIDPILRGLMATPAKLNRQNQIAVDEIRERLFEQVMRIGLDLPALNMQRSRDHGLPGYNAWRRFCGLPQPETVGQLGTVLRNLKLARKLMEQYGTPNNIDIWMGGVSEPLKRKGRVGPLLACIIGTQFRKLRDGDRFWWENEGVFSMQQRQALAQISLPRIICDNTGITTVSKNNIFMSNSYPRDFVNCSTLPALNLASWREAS
T1 sequence (P05164 165-273 limits assumed): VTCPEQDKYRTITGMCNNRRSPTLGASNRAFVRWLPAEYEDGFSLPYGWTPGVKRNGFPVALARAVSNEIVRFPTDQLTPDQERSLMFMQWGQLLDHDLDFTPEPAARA
Briefly: Inhibition of human myeloperoxidase (hMPO) peroxidation cycle in vitro. In kind it is biochemical. As to conditions: 3'-(p-aminophenyl) fluorescein and H2O2 at Km. Here is the method: 50 μL of 2×substrate (composed of 3′-(p-aminophenyl) fluorescein and H2O2, with 3′-(p-aminophenyl) fluorescein and H2O2 both at Km concentration, purchased from Invitrogen, A36003) to a black opaque low-protein-adsorption 96-well plate (purchased from PerkinElmer, 6005270), and 45 μL of 2×compound at different concentrations (DMSO final concentration of 1%) was added. After thorough blowing and uniform mixing of a mixture, […] of […] human myeloperoxidase (purchased from PLANTANATURAL, 700-03-001) was added and mixed uniformly, and an enzyme-linked immunosorbent assay reader was immediately used at a wavelength of Ex/Em:488/520 nm to read fluorescence values for 0-30 minutes (read every 20 seconds) using a dynamic mode. Different concentrations of compound inhibitors were calculated: inhibition rate (%)=[1−(Slopecontrol−Slopecpd)/SlopeControl−SlopeBlank)]*100, where SlopeBlank is a slope of a control without the compound and an MPO well at 0-5 minutes ([…] reading/reaction time t); SlopeControl is a slope of the well without the compound (containing 1% DMSO) at 0-5 minutes (linear reaction stage); and Slopecpd is a slope of the compound at 0-5 minutes. Using a logarithmic value of the compound concentration as an abscissa and the inhibition rate as an ordinate, a 4-parameter nonlinear regression curve was fitted to calculate the IC50 value (Y=Bottom+(Top-Bottom)/(1+10^((Log IC50−X)*HillSlope)), where Hillslope represents the slope of the fitted curve, and IC50 represents the half inhibitory concentration. Test results were shown in Table 1.

A short description of data set [2]: Pharmacokinetic study in rats. As to conditions: for F: 5 mg/kg p.o versus 1 mg/kg i.v; for AUC(0-t) / Cmax / clearance / half-life: male, SD, rat, plasma. In kind it is in vivo, SD rats. The text has this: SD rats: male, 180-350 g, purchased from Zhejiang Vital River Laboratory Animal Technology Co., Ltd.
Reagents: dimethyl sulfoxide (DMSO), polyethylene glycol 400 (PEG-400), normal saline, acetonitrile, formic acid, propranolol (internal standard) are all commercially available.
Instrument: Thermo Fisher Scientific LC-MS (Ultimate 3000 UPLC, TSQ QUANTUMN ULTRA triple quadrupole mass spectrometer).
The compound was weighed and dissolved in a DMSO-PEG-400 normal saline (5:60:35, v/v/v) system. After intravenous administration or intragastric administration to rats, 200 μL of venous blood was collected in an EDTA-K2 anticoagulation tube at 15 minutes, 30 minutes, 1 hour, 2 hours, 5 hours, 7 hours, and 24 hours (additional 5 minutes for an IV group) and centrifuged at 12000 rpm for 2 minutes. Plasma was taken and frozen and preserved at −80° C. for testing. A certain amount of samples for test was precisely weighed and dissolved in DMSO to 2 mg/mL as a stock solution. An appropriate amount of compound stock solution was accurately sucked, and diluted by adding acetonitrile to prepare a standard series solution. 4 μL of each of the above standard series solution was accurately sucked, and added to 36 µL of blank plasma, vortex mixing was performed to prepare plasma samples equivalent to plasma concentrations of 1 ng/mL, 3 ng/mL, 5 ng/mL, 10 ng/mL, 30 ng/mL, 100 ng/mL, 300 ng/mL, 1000 ng/mL, and 3000 ng/mL. Dual sample analysis was performed for each concentration to establish a standard curve. 30 μL of plasma (5-fold dilution of plasma of intravenous administration for 5 minutes, 15 minutes, and 30 minutes) was taken, a propranolol acetonitrile solution (internal standard, 50 ng/mL) was added to precipitate the protein, after 100 μL water was added for even vortex mixing, centrifugation was performed at 4000 rpm for 5 minutes, and supernatants were taken for LC-MS/MS analysis. LC-MS detection conditions were as follows: • chromatographic column: YMC-Triart C18 50×3.0 mmI.D. S-3 μm, 12 nm
A mobile phase A: water (0.1% formic acid), a mobile phase B: acetonitrile, a flow rate: 0.5 mL/min, gradient elution: […]
After LC-MS detection of blood drug concentration, WinNonlin 6.1 software was used to calculate pharmacokinetic parameters using non compartmental model method.

A further data set addresses CYP3A (Homo sapiens, UniProt P08684). The experiment in a line: Enzyme inhibition test, CYP3A in human liver microsomes. In kind it is in vitro ADME. As to conditions: 0.2 mg/mL human liver microsomes. How it is done:
Material: midazolam and testosterone were purchased from Cerilliant and PANPHY; ketoconazole was purchased from MCE; and human liver microsomes were purchased from Corning.
The inhibitory potential of the compound on cytochrome P450 enzyme CYP3A was evaluated using a phosphate buffer saline (100 mM, pH 7.4) system containing 0.2 mg/mL human liver microsomes. The test concentrations of the compound were 0.068 μM, 0.206 μM, 0.62 μM, 1.85 μM, 5.56 μM, 16.67 μM, and 50 μM. The positive substrates in the incubation system were 1 μM midazolam and 40 μM testosterone (CYP3A), respectively. The concentration of the positive inhibitor ketoconazole (CYP3A) in the incubation system was 0.05 μM. Incubation was carried out at 37° C., and an NADPH solution with a final concentration of 1 mM was added to initiate a reaction. The incubation time was 10 minutes. After incubation, all samples were added to 300 μL of acetonitrile solution containing 3% formic acid and internal standard (0.5 μM tolbutamide) to precipitate the protein, and the metabolic product generation of the labeled substrate was detected by UPLC-MS/MS to calculate an IC50 value of compound inhibition.

The subject of another data set is CYP2B6. The experiment in a line: Enzyme induction test, CYP2B6 mRNA level in human primary hepatocytes. In kind it is in vitro ADME. As to conditions: CYP2B6, 10 μM, 3 days.
Excerpt: as §1, §2, §3

The next data set relates to CYP1A2. The experiment in a line: Enzyme induction test, CYP1A2 mRNA level in human primary hepatocytes. In kind it is in vitro ADME. As to conditions: CYP1A2, 10 μM, 3 days.
Excerpt: as §1, §2, §3

Where [3] appears, read: pH 7.4, probe midazolam (1 μM), CYP3A (Midazolam).
The mark [4] stands for this setting: pH 7.4, probe testosterone (40 μM), CYP3A (Testosterone).

Sequence of CYP3A (P08684 2-503): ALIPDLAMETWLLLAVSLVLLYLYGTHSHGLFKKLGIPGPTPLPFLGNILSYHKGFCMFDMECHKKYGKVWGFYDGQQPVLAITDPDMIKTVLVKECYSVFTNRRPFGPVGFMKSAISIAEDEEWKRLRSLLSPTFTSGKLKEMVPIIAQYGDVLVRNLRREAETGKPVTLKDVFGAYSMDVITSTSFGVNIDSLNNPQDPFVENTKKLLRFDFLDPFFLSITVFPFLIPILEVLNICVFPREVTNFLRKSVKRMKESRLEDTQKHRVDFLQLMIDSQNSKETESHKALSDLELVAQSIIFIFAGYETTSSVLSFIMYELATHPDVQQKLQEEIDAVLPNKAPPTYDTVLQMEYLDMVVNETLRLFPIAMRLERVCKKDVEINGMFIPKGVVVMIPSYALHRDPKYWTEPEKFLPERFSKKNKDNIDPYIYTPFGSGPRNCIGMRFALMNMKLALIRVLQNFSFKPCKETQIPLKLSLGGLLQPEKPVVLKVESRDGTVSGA

`N[C@@H]1CCOc2cccc(Cn3c(=S)[nH]c(=O)c4[nH]ccc43)c21` (single isomer, unassigned) [Compound 6A]: the “mRNA Relative positive induction percentage” value in the data set on CYP3A4 was 2.10%; in the data set with CYP2B6, 1.68%; in the data set on CYP1A2 it was −0.29%. This molecule showed a half-inhibitory concentration (IC50) in data set [1] of 4.64 nM. The molecule further had a F in data set [2] of 57.2%. For the same molecule, the area under the curve AUC(0-t) is 1270 ng·h/mL in data set [2] (iv, 1 mg/kg i.v) and 3630 ng·h/mL in data set [2] (po, 5 mg/kg p.o). Moreover, the peak concentration (Cmax) in data set [2] (iv, 1 mg/kg i.v) stood at 1900 ng/mL; in data set [2] (po, 5 mg/kg p.o), 1700 ng/mL. In data set [2] (iv, 1 mg/kg i.v), this molecule showed a clearance of 13 mL/min/kg. Also, the half-life in data set [2] (iv, 1 mg/kg i.v) is 4.98 h; in data set [2] (po, 5 mg/kg p.o), 3.66 h. For the same molecule, the 50% inhibitory concentration (IC50) at 10 min is above 50000 nM against CYP3A (setting [3]) and 27300 nM on CYP3A (setting [4]).

With `N[C@@H]1CCCc2cccc(Cn3c(=S)[nH]c(=O)c4[nH]ccc43)c21` (single isomer, unassigned) [Compound 7A, 1-((8-amino-5,6,7,8-tetrahydronaphthalene-1-yl)methyl)-2-thio-1,2,3,5-tetrahydro-4H-pyrrolo[3,2-d]pyrimidin-4-one], the figures for the “mRNA Relative positive induction percentage” value with CYP3A4, with CYP2B6 and in the data set with CYP1A2 were 7.93%, 8.41% and 0.15%, respectively. Further, the IC50 in data set [1] turned out to be 4.83 nM. Further, in data set [2], the F was determined as 83.3%. Besides, the AUC(0-t) stood at 293 ng·h/mL in data set [2] (iv, 1 mg/kg i.v) and 1220 ng·h/mL in data set [2] (po, 5 mg/kg p.o). Besides, the peak concentration (Cmax) in data set [2] (iv, 1 mg/kg i.v) worked out at 800 ng/mL; in data set [2] (po, 5 mg/kg p.o), 500 ng/mL. The clearance in data set [2] (iv, 1 mg/kg i.v) was 52.7 mL/min/kg. The half-life was 2.59 h in data set [2] (iv, 1 mg/kg i.v) and 3.44 h in data set [2] (po, 5 mg/kg p.o). For the same molecule, the IC50 at 10 min on CYP3A (setting [3]) was above 50000 nM; against CYP3A (setting [4]), 19700 nM.

In data set [1], `N[C@@H]1CCCOc2cccc(Cn3c(=S)[nH]c(=O)c4[nH]ccc43)c21` (single isomer, unassigned) [Compound 15A, 1-((5-amino-2,3,4,5-tetrahydrobenzo[b]oxypyrimidin-6-yl)methyl)-2-thio-1,2,3,5-tetrahydroxy-4H-pyrrolo[3,2-d]pyrimidin-4-one] gave an IC50 of 9.92 nM.

For `NC1CCc2c(Cl)ccc(Cn3c(=S)[nH]c(=O)c4[nH]ccc43)c21` (stereo not drawn) [Compound 1, 1-((3-amino-7-chloro-2,3-dihydro-1H-inden-4-yl)methyl)-2-thio-1,2,3,5-tetrahydro-4H-pyrrolo[3,2-d]pyrimidin-4-one], the concentration for half-maximal inhibition (IC50) in data set [1] came out at 51.6 nM. This IC50 is about 5.2-fold higher than that of the molecule before.

On to `NC1COc2c(Cl)ccc(Cn3c(=S)[nH]c(=O)c4[nH]ccc43)c21` (stereo not drawn) [Compound 2, 1-((3-amino-7-chloro-2,3-dihydrobenzofuran-4-yl)methyl)-2-thio-1,2,3,5-tetrahydro-4H-pyrrolo[3,2-d]pyrimidin-4-one], for which the 50% inhibitory concentration (IC50) in data set [1] was found to be 33 nM.

With `NC1COc2cccc(Cn3c(=S)[nH]c(=O)c4[nH]ccc43)c21` (stereo not drawn) [Compound 3], half-maximal inhibition in data set [1] (IC50) was put at 31 nM.

`NC1CCOc2c(Cl)ccc(Cn3c(=S)[nH]c(=O)c4[nH]ccc43)c21` (stereo not drawn) [Compound 5, 1-((4-amino-8-chlorochroman-5-yl)methyl)-2-thio-1,2,3,5-tetrahydro-4H-pyrrolo[3,2-d]pyrimidin-4-one]: the IC50 in data set [1] came to 16.1 nM.

In data set [1], `NC1CCOc2cccc(Cn3c(=S)[nH]c(=O)c4[nH]ccc43)c21` (stereo not drawn) [Compound 6, 1-((4-aminochroman-5-yl)methyl)-2-thio-1,2,3,5-tetrahydro-4H-pyrrolo[3,2-d]pyrimidin-4-one] had a half-maximal inhibitory concentration (IC50) of 8.02 nM. The molecule further yielded a F in data set [2] of 48.6%. Besides, the AUC(0-t) in data set [2] (iv, 1 mg/kg i.v) was 827 ng·h/mL; in data set [2] (po, 5 mg/kg p.o) it was 2010 ng·h/mL. This molecule showed a clearance in data set [2] (iv, 1 mg/kg i.v) of 19.9 mL/min/kg. Besides, the half-life in data set [2] (iv, 1 mg/kg i.v) is 3.36 h; in data set [2] (po, 5 mg/kg p.o), 5.13 h. The Cmax in data set [2] (iv, 1 mg/kg i.v, read-out: Cmax) came out at 620 ng/mL; in data set [2] (po, 5 mg/kg p.o, read-out: Cmax), 305 ng/mL.

Molecule `NC1CCCc2cccc(Cn3c(=S)[nH]c(=O)c4[nH]ccc43)c21` (stereo not drawn) [Compound 7, 1-((8-amino-5,6,7,8-tetrahydronaphthalene-1-yl)methyl)-2-thio-1,2,3,5-tetrahydro-4H-pyrrolo[3,2-d]pyrimidin-4-one] showed a half-inhibitory concentration (IC50) in data set [1] of 10.7 nM.

In data set [1], `Cc1c[nH]c2c(=O)[nH]c(=S)n(Cc3cccc4c3C(N)CCO4)c12` (stereo not drawn) [Compound 16] had an IC50 of 19.6 nM.

Consider `COc1c[nH]c2c(=O)[nH]c(=S)n(Cc3cccc4c3C(N)CCO4)c12` (stereo not drawn) [Compound 17, 1-((4-aminochroman-5-yl)methyl)-7-methoxyl-2-thio-1,2,3,5-tetrahydro-4H-pyrrolo[3,2-d]pyrimidin-4-one], for which, in data set [1], the IC50 was 23.4 nM. The IC50 values of the last two molecules are within 1.5-fold of each other.
